In patent US20070128217A1 (priority 2003, published 2007):

What was measured:
[1] = tested on: rabbit serum obtained by immunizing a rabbit with the SARS-CoV strain Frankfurt 1; type: binding; design: Binding of a rabbit serum to linear peptides / Binding of a rabbit serum to looped peptides / Rabbit serum linear peptides / Rabbit serum looped peptides / Binding of a rabbit serum to linear peptides of protein N of SARS-CoV Urbani (Rabbit serum linear peptides) / Binding of a rabbit serum to looped/cyclic peptides of protein N of SARS-CoV Urbani (Rabbit serum looped peptides): unit not given here
[2] = tested on: control sera (pooled serum of ten healthy LUMC hospital workers; commercial negative donor pooled serum from the Dutch bloodbank); type: binding, human; design: Binding of Control serum LUMC to linear peptides / Binding of Control serum Blood-bank to linear peptides / Binding of Control serum LUMC to looped peptides / Binding of Control Serum Blood-Bank to Looped peptides / Binding of Control serum LUMC to linear peptides of the protein M of SARS-CoV Urbani / Binding of Control serum Blood-bank to linear peptides of the protein M of SARS-CoV Urbani / Binding of Control serum LUMC to looped peptides of the protein M of SARS-CoV Urbani / Binding of Control Serum Blood-Bank to Looped peptides of the protein M of SARS-CoV Urbani: unit not given here
[3] = tested on: antibodies in sera from SARS patients (sera 1a, 1b, 2, 6, 37, 62, London, SARS-yellow, SARS-green); type: binding, human; design: Binding of serum 6 to linear peptides of protein X1 of SARS-CoV Urbani / Binding of serum 37 to linear peptides of protein X1 of SARS-CoV Urbani / Binding of serum 6 to looped/cyclic peptide (PEPSCAN-ELISA) / Binding of serum 37 to looped/cyclic peptide (PEPSCAN-ELISA) / Binding of serum 37 to looped/cyclic peptides of protein X1 of SARS-CoV Urbani / Binding of serum 6 to linear peptides of protein X2 / Binding of serum 37 to linear peptides of protein X2 / Binding of serum 37 to looped/cyclic peptides of protein X2 of SARS-CoV Urbani / Binding of serum 6 to linear peptides of protein M of SARS-CoV Urbani / Binding of serum 37 to linear peptides of protein M of SARS-CoV Urbani / Binding of serum 6 to looped/cyclic peptides of protein M of SARS-CoV Urbani / Binding of serum 37 to looped/cyclic peptides of protein M of SARS-CoV Urbani / Binding of serum 6 to linear peptides of protein X3 of SARS-CoV Urbani / Binding of serum 37 to linear peptides of protein X3 of SARS-CoV Urbani / Binding of serum 37 to looped/cyclic peptides of protein X3 of SARS-CoV Urbani / Binding of serum 6 to linear peptides of protein X4 of SARS-CoV Urbani / Binding of serum 37 to linear peptides of protein X4 of SARS-CoV Urbani / Binding of serum 37 to looped/cyclic peptides of protein X4 of SARS-CoV Urbani / Binding of serum 6 to linear peptides of protein X5 of SARS-CoV Urbani / Binding of serum 37 to linear peptides of protein X5 of SARS-CoV Urbani / Binding of serum 37 to looped/cyclic peptides of protein X5 of SARS-CoV Urbani / Binding of serum 6 to linear peptides of protein N of SARS-CoV Urbani / Binding of serum 37 to linear peptides of protein N of SARS-CoV Urbani / Binding of serum 6 to linear peptide (PEPSCAN-ELISA) / Binding of serum 1a to looped/cyclic peptides of protein N of SARS-CoV Urbani / Binding of serum 1b to looped/cyclic peptides of protein N of SARS-CoV Urbani / Binding of serum 2 to looped/cyclic peptides of protein N of SARS-CoV Urbani / Binding of serum 6 to looped/cyclic peptides of protein N of SARS-CoV Urbani / Binding of serum 37 to looped/cyclic peptides of protein N of SARS-CoV Urbani / Binding of serum 62 to looped/cyclic peptides of protein N of SARS-CoV Urbani / Binding of serum London to looped/cyclic peptides of protein N of SARS-CoV Urbani / Binding of serum SARS-green to looped/cyclic peptides of protein N of SARS-CoV Urbani: unit not given here

**Q.** Which results are given for RGTIVTRPLMESELV?
**A.** Rabbit serum linear peptides [1]: 0.3; Rabbit serum looped peptides [1]: 0.3; Binding of Control Serum Blood-Bank to Looped peptides of the protein M of SARS-CoV Urbani [2]: 0.6; Binding of Control serum Blood-bank to linear peptides of the protein M of SARS-CoV Urbani [2]: 0.7; Binding of Control serum LUMC to linear peptides of the protein M of SARS-CoV Urbani [2]: 0.4; Binding of Control serum LUMC to looped peptides of the protein M of SARS-CoV Urbani [2]: 0.8; Binding of serum 1a to linear peptides of protein M of SARS-CoV Urbani [3]: 0.9; Binding of serum 1b to linear peptides of protein M of SARS-CoV Urbani [3]: 0.6; Binding of serum 2 to linear peptides of protein M of SARS-CoV Urbani [3]: 0.6; Binding of serum 6 to linear peptides of protein M of SARS-CoV Urbani [3]: 0.4; Binding of serum 37 to linear peptides of protein M of SARS-CoV Urbani [3]: 0.9; Binding of serum 62 to linear peptides of protein M of SARS-CoV Urbani [3]: 0.9; Binding of serum London to linear peptides of protein M of SARS-CoV Urbani [3]: 0.3; Binding of serum SARS-green to linear peptides of protein M of SARS-CoV Urbani [3]: 0.3; Binding of serum SARS-yellow to linear peptides of protein M of SARS-CoV Urbani [3]: 0.1; Recognition of the peptide by sera of SARS-CoV infected individuals, and form (linear, looped/cyclic) in which it is recognized [3]: recognized in looped/cyclic form

**Q.** Which “Rabbit serum linear peptides” value [1] does the source give for RIAIWNLDVIISSIV here?
**A.** The value was 0.3.

**Q.** What about the “Rabbit serum looped peptides” value [1] of the same sequence?
**A.** The value was 0.4.

**Q.** What about the “Binding of Control Serum Blood-Bank to Looped peptides of the protein X3 of SARS-CoV Urbani” value [2] of the same sequence?
**A.** The value was 0.9.

**Q.** And the “Binding of Control serum Blood-bank to linear peptides of the protein X3 of SARS-CoV Urbani” value [2]?
**A.** The value was 0.7.

**Q.** What about the “Binding of Control serum LUMC to linear peptides of the protein X3 of SARS-CoV Urbani” value [2] of the same sequence?
**A.** Its value is 0.6.

**Q.** And the “Binding of Control serum LUMC to looped peptides of the protein X3 of SARS-CoV Urbani” value [2]?
**A.** Its value is 0.8.

**Q.** What about the “Binding of serum 1a to linear peptides of protein X3 of SARS-CoV Urbani” value [3] of the same sequence?
**A.** Its value is 0.7.

**Q.** What about the “Binding of serum 1a to looped/cyclic peptides of protein X3 of SARS-CoV Urbani” value [3] of the same sequence?
**A.** The value was 0.8.

**Q.** What about the “Binding of serum 1b to linear peptides of protein X3 of SARS-CoV Urbani” value [3] of the same sequence?
**A.** Its value is 0.3.

**Q.** And the “Binding of serum 1b to looped/cyclic peptides of protein X3 of SARS-CoV Urbani” value [3]?
**A.** The value was 0.5.

**Q.** And the “Binding of serum 2 to linear peptides of protein X3 of SARS-CoV Urbani” value [3]?
**A.** The value was 0.6.

**Q.** What about the “Binding of serum 2 to looped/cyclic peptides of protein X3 of SARS-CoV Urbani” value [3] of the same sequence?
**A.** The value was 0.8.

**Q.** What about the “Binding of serum 6 to linear peptides of protein X3 of SARS-CoV Urbani” value [3] of the same sequence?
**A.** Its value is 0.5.

**Q.** What about the “Binding of serum 6 to looped/cyclic peptides of protein X3 of SARS-CoV Urbani” value [3] of the same sequence?
**A.** The value was 0.4.

**Q.** What about the “Binding of serum 37 to linear peptides of protein X3 of SARS-CoV Urbani” value [3] of the same sequence?
**A.** The value was 0.5.

**Q.** And the “Binding of serum 37 to looped/cyclic peptides of protein X3 of SARS-CoV Urbani” value [3]?
**A.** Its value is 0.6.

**Q.** What about the “Binding of serum 62 to linear peptides of protein X3 of SARS-CoV Urbani” value [3] of the same sequence?
**A.** Its value is 0.7.

**Q.** What about the “Binding of serum 62 to looped/cyclic peptides of protein X3 of SARS-CoV Urbani” value [3] of the same sequence?
**A.** Its value is 0.7.

**Q.** What about the “Binding of serum London to linear peptides of protein X3 of SARS-CoV Urbani” value [3] of the same sequence?
**A.** Its value is 0.7.

**Q.** What about the “Binding of serum London to looped/cyclic peptides of protein X3 of SARS-CoV Urbani” value [3] of the same sequence?
**A.** Its value is 0.2.

**Q.** What about the “Binding of serum SARS-green to linear peptides of protein X3 of SARS-CoV Urbani” value [3] of the same sequence?
**A.** Its value is 0.3.

**Q.** What about the “Binding of serum SARS-green to looped/cyclic peptides of protein X3 of SARS-CoV Urbani” value [3] of the same sequence?
**A.** Its value is 0.3.

**Q.** What about the “Binding of serum SARS-yellow to linear peptides of protein X3 of SARS-CoV Urbani” value [3] of the same sequence?
**A.** The value was 0.4.

**Q.** What about the “Binding of serum SARS-yellow to looped/cyclic peptides of protein X3 of SARS-CoV Urbani” value [3] of the same sequence?
**A.** Its value is 1.0.

**Q.** What does the source list for RIGNYKLNTDHAGSN?
**A.** Rabbit serum linear peptides [1]: 0.1; Rabbit serum looped peptides [1]: 0.2; Binding of Control Serum Blood-Bank to Looped peptides of the protein M of SARS-CoV Urbani [2]: 0.8; Binding of Control serum Blood-bank to linear peptides of the protein M of SARS-CoV Urbani [2]: 0.9; Binding of Control serum LUMC to linear peptides of the protein M of SARS-CoV Urbani [2]: 0.6; Binding of Control serum LUMC to looped peptides of the protein M of SARS-CoV Urbani [2]: 0.8; Binding of serum 1a to linear peptides of protein M of SARS-CoV Urbani [3]: 0.7; Binding of serum 1a to looped/cyclic peptides of protein M of SARS-CoV Urbani [3]: 0.6; Binding of serum 1b to linear peptides of protein M of SARS-CoV Urbani [3]: 0.5; Binding of serum 1b to looped/cyclic peptides of protein M of SARS-CoV Urbani [3]: 0.5; Binding of serum 2 to linear peptides of protein M of SARS-CoV Urbani [3]: 0.6; Binding of serum 2 to looped/cyclic peptides of protein M of SARS-CoV Urbani [3]: 0.5; Binding of serum 6 to linear peptides of protein M of SARS-CoV Urbani [3]: 0.3; Binding of serum 6 to looped/cyclic peptides of protein M of SARS-CoV Urbani [3]: 0.7; Binding of serum 37 to linear peptides of protein M of SARS-CoV Urbani [3]: 0.5; Binding of serum 37 to looped/cyclic peptides of protein M of SARS-CoV Urbani [3]: 0.6; Binding of serum 62 to linear peptides of protein M of SARS-CoV Urbani [3]: 0.6; Binding of serum 62 to looped/cyclic peptides of protein M of SARS-CoV Urbani [3]: 0.6; Binding of serum London to linear peptides of protein M of SARS-CoV Urbani [3]: 0.6; Binding of serum London to looped/cyclic peptides of protein M of SARS-CoV Urbani [3]: 0.4; Binding of serum SARS-green to linear peptides of protein M of SARS-CoV Urbani [3]: 0.6; Binding of serum SARS-green to looped/cyclic peptides of protein M of SARS-CoV Urbani [3]: 0.2; Binding of serum SARS-yellow to linear peptides of protein M of SARS-CoV Urbani [3]: 0.1; Binding of serum SARS-yellow to looped/cyclic peptides of protein M of SARS-CoV Urbani [3]: 0.6
